Calls of active or inactive are those of the source. Unless noted, the rule behind the calls is not given here.
Key:
[1] = growth suppression of PTEN-null colon cells, dose response, cell-based, HCT116 PTEN knockout (AID 1047); format: functional;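 also: HCT116 colon tumor cells with PTEN knocked out; cells exposed to compound for 60 hours before readout; potency for loss of cell viability measured by luminescence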
[2] = growth suppression of beta-catenin-knockout colon cells, dose response, cell-based, HCT116, human colon tumor (AID 1045); format: functional;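 also: HCT116 colon tumor cells with beta catenin knocked out; cells exposed to compound for 60 hours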
[3] = cytotoxicity in BJeHLT fibroblasts, dose response, counter-screen for Ras selective lethality project, BJeHLT cells, dry powder (AID 493052); format: functional, cell-based; conditions: Homo sapiens
[4] = viability loss in HRASV12 DRD fibroblasts, dose response, cell-based, DRD BJ fibroblasts, dry powder (AID 493049); format: functional
[5] = viability loss in BJeLR (HRASV12) cells, primary screen, Ras selective lethality project, cell-based, Alamar Blue, dry powder (AID 493045); format: functional
[6] = cytotoxicity in BJeH fibroblasts, dose response, counter-screen for Ras selective lethality project, BJeH cells, dry powder (AID 493054); format: functional, cell-based
[7] = molecular target: T1, Replicative DNA helicase DnaB (Mycobacterium tuberculosis, UniProt P9WMR3); assay: DnaB intein splicing inhibitors, dose response, biochemical, cell-free fluorescence (AID 449749); format: functional
T1 sequence (P9WMR3 whole entry): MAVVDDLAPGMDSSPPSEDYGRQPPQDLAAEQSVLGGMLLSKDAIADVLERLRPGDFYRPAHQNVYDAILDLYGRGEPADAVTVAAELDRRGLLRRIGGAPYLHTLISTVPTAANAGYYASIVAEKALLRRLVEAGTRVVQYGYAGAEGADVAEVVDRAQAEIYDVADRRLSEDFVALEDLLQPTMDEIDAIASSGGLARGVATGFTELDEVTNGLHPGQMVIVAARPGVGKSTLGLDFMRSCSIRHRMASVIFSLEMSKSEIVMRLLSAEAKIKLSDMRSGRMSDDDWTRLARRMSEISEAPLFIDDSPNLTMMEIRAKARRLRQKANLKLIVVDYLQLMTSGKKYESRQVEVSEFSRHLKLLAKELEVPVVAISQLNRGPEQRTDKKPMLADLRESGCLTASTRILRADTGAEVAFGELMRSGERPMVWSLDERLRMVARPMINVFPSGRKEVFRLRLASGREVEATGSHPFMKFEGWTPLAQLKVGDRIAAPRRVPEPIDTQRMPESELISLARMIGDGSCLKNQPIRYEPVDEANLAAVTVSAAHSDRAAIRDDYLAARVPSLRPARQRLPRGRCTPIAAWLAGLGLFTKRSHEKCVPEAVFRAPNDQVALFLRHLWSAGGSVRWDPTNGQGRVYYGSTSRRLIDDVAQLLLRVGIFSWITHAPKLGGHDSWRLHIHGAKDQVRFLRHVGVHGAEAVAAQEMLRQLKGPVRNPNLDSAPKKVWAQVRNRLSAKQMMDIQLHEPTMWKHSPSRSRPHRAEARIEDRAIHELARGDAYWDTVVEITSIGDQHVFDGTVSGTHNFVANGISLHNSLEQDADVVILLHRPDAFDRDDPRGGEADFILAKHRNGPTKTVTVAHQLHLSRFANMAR

BJ = assay: cytotoxicity toward Ras-transformed BJeLR fibroblasts, dose response, cell-based, alamar blue fluorescence, cherrypicked samples (AID 2631); format: functional; conditions: Homo sapiens;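 also: confirmatory dose-response assay in RAS-dependent BJ fibroblasts engineered with TERT, LT and ST, with cytotoxicity read by fluorescence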
Protein RecA = molecular target: T2, Protein RecA (Mycobacterium tuberculosis, UniProt P9WHJ3); assay: Fluorescence Cell-Free Homogeneous Dose Retest to Identify Inhibitors of RecA-Intein Splicing Activity. [Related pubchem assays (depositor defined):AID2097, AID2223, AID489010, AID492950]; format: functional
T2 sequence (P9WHJ3 whole entry): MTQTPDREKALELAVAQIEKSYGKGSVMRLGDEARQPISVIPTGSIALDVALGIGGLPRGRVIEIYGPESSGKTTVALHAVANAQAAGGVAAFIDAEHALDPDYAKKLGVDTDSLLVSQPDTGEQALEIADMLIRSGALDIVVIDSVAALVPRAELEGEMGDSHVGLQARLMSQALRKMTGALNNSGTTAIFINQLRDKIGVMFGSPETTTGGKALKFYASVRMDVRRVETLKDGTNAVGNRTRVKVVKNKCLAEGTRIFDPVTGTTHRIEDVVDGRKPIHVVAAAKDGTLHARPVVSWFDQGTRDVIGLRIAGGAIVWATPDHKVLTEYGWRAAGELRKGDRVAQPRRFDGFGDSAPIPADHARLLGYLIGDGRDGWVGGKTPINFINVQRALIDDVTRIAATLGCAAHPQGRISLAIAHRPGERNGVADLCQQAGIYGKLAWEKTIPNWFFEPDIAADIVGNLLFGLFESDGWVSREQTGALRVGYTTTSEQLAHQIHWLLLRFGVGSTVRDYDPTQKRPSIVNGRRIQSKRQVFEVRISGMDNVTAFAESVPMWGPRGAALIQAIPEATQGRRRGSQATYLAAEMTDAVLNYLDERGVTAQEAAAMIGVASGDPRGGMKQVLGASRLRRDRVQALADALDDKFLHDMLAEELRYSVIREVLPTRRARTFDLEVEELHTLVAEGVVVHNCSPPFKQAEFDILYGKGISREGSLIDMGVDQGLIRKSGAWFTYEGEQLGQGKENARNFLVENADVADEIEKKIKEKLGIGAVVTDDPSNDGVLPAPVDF

INS1 = assay: beta cell apoptosis inhibitors, cytokine rescue, dose response, luminescence, retest (AID 449756); format: functional, cell-based; conditions: Rattus norvegicus;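 also: cell death triggered by IL-1 beta plus TNF-alpha plus IFN-gamma mixture; protective hits raise ATP signal compared with cytokine alone wells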
Melanocortin receptor 4 = Melanocortin receptor 4 (Homo sapiens, UniProt P32245); assay: MC4R antagonist potency on cAMP, dose response, cell-based, TR-FRET, biased antagonists (AID 602298); format: functional;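 also: antagonist potency against agonist-stimulated cAMP production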
[8] = nonselective inhibitors of cellular cAMP signaling, dose response, counter-screen for MC4R biased antagonist project, cell-based, TR-FRET cAMP detection (AID 602305); format: functional;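 also: U2OS cells stimulated with forskolin near its EC80 as the cAMP inducer; potency is for inhibition of forskolin-stimulated cAMP signaling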
Fatty acid synthase [9] = molecular target: T3, Fatty acid synthase (Homo sapiens, UniProt P49327); assay: FAS thioesterase domain inhibitors, dose response, biochemical, endpoint fluorescence intensity, uHTS hits (AID 624327); format: functional;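 also: fluorescence from hydrolysis of an O-methyl fluorescein acyl ester substrate by the enzyme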
Fatty acid synthase [10] = molecular target: T3, Fatty acid synthase; assay: FAS thioesterase domain inhibitors, dose response, biochemical, kinetic fluorescence intensity (AID 624326); format: functional;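 also: rate of fluorescence rise from hydrolysis of a fluorogenic O-methyl fluorescein ester substrate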
Paired box protein Pax-8 = Paired box protein Pax-8 (Homo sapiens, UniProt Q06710); assay: inhibitors of PAX8-driven TPO luciferase reporter, dose response, RMG-I cells, cherry-pick (AID 687027); format: functional, cell-based;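 also: luciferase reporter driven by Pax8 target thyroperoxidase promoter measured by SteadyGlo luminescence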
[11] = HT-29 colorectal cell cytotoxicity over time, dose response, HRas target identification project, CellTiter-Glo, multiple timepoints, dry powder (AID 720598); format: functional, cell-based
[12] = SR lymphoma cell viability over time, late-stage follow-up, mechanism study for HRAS target identification, CellTiter-Glo ATP luminescence, 8-48 h, dry powder (AID 720608); format: functional, cell-based
[13] = SNB-19 glioblastoma cell viability over time, late-stage follow-up, mechanism study for HRAS target identification, CellTiter-Glo ATP luminescence, 8-48 h, dry powder (AID 720611); format: functional, cell-based
[14] = LOX IMVI melanoma cell viability loss, dose response, HRAS target identification, CellTiter-Glo ATP luminescence, 8/24/48 h, dry powder (AID 720602); format: functional, cell-based
[15] = HeLa cell viability over time, late-stage follow-up, mechanism study for HRAS target identification, CellTiter-Glo ATP luminescence, 8-48 h, dry powder (AID 720609); format: functional, cell-based
[16] = HUVEC endothelial cell viability loss, dose response, cytotoxicity control for HRAS target identification, CellTiter-Glo ATP luminescence, 8/24/48 h, dry powder (AID 720604); format: functional, cell-based
[17] = non-specific cell cytotoxicity, dose response, cytotoxicity control for PAX8 inhibitor project, plate reader, dry powder samples (AID 743021); format: functional, cell-based
[18] = C2C12 myoblast ATP-based viability loss, dose response, cytotoxicity control for HRAS target identification, cell-based, CellTiter-Glo ATP luminescence, 8/24/48 h, dry powder (AID 720603); format: functional
[19] = U-251 glioblastoma cell viability loss, dose response, HRAS target identification, Alamar Blue fluorescence, 8/24/48 h, dry powder (AID 720605); format: functional, cell-based
[20] = U-251 glioblastoma cell viability loss, late-stage follow-up, mechanism study for HRAS target identification, CellTiter-Glo ATP luminescence, several timepoints, dry powder (AID 720616); format: functional, cell-based
[21] = CCRF-CEM leukemia cell viability loss, dose response, HRAS target identification, CellTiter-Glo ATP luminescence, 8/24/48 h, dry powder (AID 720607); format: functional, cell-based
[22] = molecular target: T4, Dual specificity protein phosphatase 3 (Homo sapiens, UniProt P51452); assay: SAR VHR1 absorbance Assay for In Vitro dose response studies. [Related pubchem assays (depositor defined):AID1654, AID1661, AID1878, AID1992, AID2004]
[23] = molecular target: T4, Dual specificity protein phosphatase 3; assay: SAR VHR1 Fluorescent Assay for In Vitro dose response studies. [Related pubchem assays (depositor defined):AID1654, AID1661, AID1878, AID1992, AID2004, AID2070, AID2085]; format: functional
[24] = molecular target: T5, Tyrosine-protein phosphatase non-receptor type 7 (Homo sapiens, UniProt P35236); assay: redox-dependent HePTP inhibition, mechanism study, biochemical, fluorescence (AID 2068); format: functional
T5 sequence (P35236 whole entry): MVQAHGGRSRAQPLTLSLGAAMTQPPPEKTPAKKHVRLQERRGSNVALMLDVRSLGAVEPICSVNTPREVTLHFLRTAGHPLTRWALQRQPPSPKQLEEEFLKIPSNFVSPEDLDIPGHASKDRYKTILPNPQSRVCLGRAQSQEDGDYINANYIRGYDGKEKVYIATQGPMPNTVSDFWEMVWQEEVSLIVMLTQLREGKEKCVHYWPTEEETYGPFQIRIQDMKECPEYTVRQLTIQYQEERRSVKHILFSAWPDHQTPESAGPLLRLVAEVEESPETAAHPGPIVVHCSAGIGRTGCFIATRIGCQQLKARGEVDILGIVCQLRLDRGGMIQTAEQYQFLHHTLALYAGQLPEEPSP

[25] = molecular target: T6, Dual specificity protein phosphatase 6 (Rattus norvegicus, UniProt Q64346); format: functional;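 also: confirmatory in vitro dose-response testing of MKP-3 inhibition; recombinant His-tagged MKP-3 made in E. coli BL21 with OMFP substrate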
T6 sequence (Q64346 whole entry): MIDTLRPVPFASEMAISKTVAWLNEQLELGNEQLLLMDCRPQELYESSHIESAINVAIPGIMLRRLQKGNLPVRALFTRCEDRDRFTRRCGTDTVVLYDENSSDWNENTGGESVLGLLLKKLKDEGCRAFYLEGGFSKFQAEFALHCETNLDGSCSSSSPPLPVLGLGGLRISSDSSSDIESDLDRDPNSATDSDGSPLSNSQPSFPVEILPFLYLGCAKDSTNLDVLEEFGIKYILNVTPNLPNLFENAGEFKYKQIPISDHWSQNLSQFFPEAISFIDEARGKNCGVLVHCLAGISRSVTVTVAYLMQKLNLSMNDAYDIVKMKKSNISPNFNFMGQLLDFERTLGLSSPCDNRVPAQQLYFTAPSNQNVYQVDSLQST

[26] = molecular target: G-protein coupled receptor 35 (Homo sapiens, UniProt Q9HC97); assay: SAR analysis of Antagonists of the GPR35 Receptor using an Image-Based Assay - Set 5. [Related pubchem assays (depositor defined):AID2058, AID2079]; format: functional
[27] = molecular target: G-protein coupled receptor 55 (Homo sapiens, UniProt Q9Y2T6); assay: SAR Analysis of Selective Antagonists of GPR55 using an Image-Based Assay - Set 3. [Related pubchem assays (depositor defined):AID2058, AID2079]; format: functional
Large T antigen = Large T antigen (Simian virus 40, UniProt P03070); format: functional, Betapolyomavirus macacae;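 also: Confirmatory-stage PubChem screen for compounds that inhibit SV40 T antigen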
[28] = molecular target: DNA dC->dU-editing enzyme APOBEC-3A (Homo sapiens, UniProt P31941); assay: APOBEC3A DNA deaminase inhibitors, dose response, biochemical (AID 504722); format: functional
[29] = molecular target: DNA dC->dU-editing enzyme APOBEC-3G (Homo sapiens, UniProt Q9HC16); assay: Dose Response confirmation of small molecule APOBEC3G DNA Deaminase Inhibitors via a fluorescence-based single-stranded DNA deaminase assay. [Related pubchem assays (depositor defined):AID493012, AID493028]; format: functional
Troponin, cardiac muscle = Troponin, cardiac muscle (Homo sapiens, UniProt P19429+P45379+P63316); assay: Fluorescence-based biochemical high throughput dose response assay for activators of the calcium sensitivity of cardiac Regulated Thin Filaments (RTF). [Related pubchem assays (depositor defined):AID493008, AID493018, AID504382, AID504383]; format: protein-complex assay

For `COc1ccc(N(C(=O)CCl)C(C(=O)NCCc2ccccc2)c2cccs2)cc1Cl` (stereo unspecified), the EC50 [1] was 1480 nM (active), the EC50 [2] was 765 nM (active) and the AC50 [3] was 847 nM (active). For the same compound, the AC50 [4] was 232 nM (active), the AC50 [5] was 249 nM (active) and the AC50 [6] was 760 nM (active). For the same compound, the AC50 [7] was 1820 nM (active), the EC50 (BJ) was 167 nM (active) and the EC50 (Protein RecA) was 240 nM (active). The AC50 (INS1) was 2820 nM (active), the IC50 (Melanocortin receptor 4) was > 64600 nM (inactive) and the IC50 [8] was > 64600 nM (inactive). For the same compound, the IC50 (Fatty acid synthase [9]) was 10200 nM (active), the IC50 (Fatty acid synthase [10]) was 10600 nM (active) and the AC50 (Paired box protein Pax-8) was 323 nM (active). The AC50 [11] was 296 nM (active), the AC50 [12] was 69.4 nM (active) and the AC50 [13] was 1180 nM (active). For the same compound, the AC50 [14] was 56.3 nM (active), the AC50 [15] was 582 nM (active) and the AC50 [16] was 12000 nM (active). For the same compound, the AC50 [17] was 2160 nM (active), the AC50 [18] was 6070 nM (active) and the AC50 [19] was 57.2 nM (active). The AC50 [20] was 941 nM (active) and the AC50 [21] was 133 nM (active).
In the case of `S=C(c1cn(CCOc2ccccc2)c2ccccc12)N1CCOCC1`, the IC50 [22] is reported as > 100000 nM (inactive), the IC50 [23] is reported as > 99000 nM (inactive) and the IC50 [24] is reported as 2350 nM (active). For the same compound, the IC50 [25] was > 99000 nM (inactive).
For `COc1ccc(-c2n[nH]cc2/C=N/NC(=S)NC(C)(C)C)cc1`, the IC50 [26] was > 32000 nM (inactive) and the IC50 [27] was 16400 nM (inactive).
In the case of `Cc1cccc(/C=N/n2c(S)nnc2-c2ccncc2)c1`, the IC50 (Large T antigen) is reported as 43700 nM (active), the IC50 [28] is reported as > 100000 nM (inactive) and the IC50 [29] is reported as 2620 nM (active). For the same compound, the EC50 (Troponin, cardiac muscle) was > 71500 nM (inactive).
